In patent publication EP3807270B1, “NOVEL HETEROARYL HETEROCYCLYL COMPOUNDS FOR THE TREATMENT OF AUTOIMMUNE DISEASE” (F. Hoffmann-La Roche AG, priority 2018, dated 2019):

Columns and labels:
CYP2D6 = target: T1, CYP2D6 (Homo sapiens, UniProt P10635); assay: CYP inhibition assay in human liver microsome; assay type: in vitro ADME; conditions: human liver microsomes, probe dextromethorphan, 10µM test compound, dextromethorphan substrate, <0: not or weak inhibitor, read-out: CYP 2D6 inhibition %@10µM
T1 construct: tissue BD-Gentest 452117; host or cells: human liver microsomes
T1 sequence (P10635 whole entry): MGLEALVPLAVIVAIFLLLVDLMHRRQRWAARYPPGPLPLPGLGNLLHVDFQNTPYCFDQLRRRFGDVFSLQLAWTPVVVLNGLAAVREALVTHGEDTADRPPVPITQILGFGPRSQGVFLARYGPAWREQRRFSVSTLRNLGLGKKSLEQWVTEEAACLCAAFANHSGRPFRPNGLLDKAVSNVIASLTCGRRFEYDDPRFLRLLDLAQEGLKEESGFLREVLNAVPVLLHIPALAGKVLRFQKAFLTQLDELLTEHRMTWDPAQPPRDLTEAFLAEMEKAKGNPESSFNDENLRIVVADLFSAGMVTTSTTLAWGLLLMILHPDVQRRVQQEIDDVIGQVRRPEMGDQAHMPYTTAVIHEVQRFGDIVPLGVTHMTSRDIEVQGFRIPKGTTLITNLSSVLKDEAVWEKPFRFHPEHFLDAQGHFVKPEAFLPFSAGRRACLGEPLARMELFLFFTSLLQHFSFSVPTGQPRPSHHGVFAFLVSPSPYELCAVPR
Description: This is a high throughput screening assay used for assessment of reversible inhibition of CYP2D6 activity of test compounds in human liver microsome (HLM) in early discovery stage. Table 4. Chemicals and materials used in the CYP inhibition assay
10 mM DMSO stock solutions of test compounds were diluted in DMSO to generate 2 mM intermediate stock solution. 250 nL of intermediate stock solution were transferred in duplicate into 3 separate 384 well microtitre plates (assay-ready plates). A mixture of HLM and each substrate was made up. 45 µL of HLM substrate mix was then transferred to each well of an assay ready plate and mixed. The negative (solvent) and positive control (standard inhibitor for CYP 2D6) were included in each assay ready plate. The assay ready plate was warmed to 37 °C in an incubator over 10 minutes. 5 µL pre-warmed NADPH regenerating system was added to each incubation well to start the reaction. Final incubation volume was 50 µL. The assay plate then was placed back in the 37 °C incubator. After 10-minute incubation, incubates were quenched by addition of 50 µL 100% acetonitrile containing internal standards (20 ng/mL D3-Dextrorphan). The supernatants were collected for RapidFire/MS/MS analysis.
RapidFire online solid phase extraction/sample injection system (Agilent) coupled with API4000 triple quadrupole mass spectrometer (AB Sciex) were used for sample analysis. The mobile phase composed of acetonitrile and water supplemented with 0.1% formic acid. A C4 solid phase extraction cartridge is used for sample separation. MS detection is achieved in positive ion MRM mode.
Peak areas for substrate, metabolite and internal standard are determined using the RapidFire integrator software (version 3.6.12009.12296). Peak area ratios (PAR) of metabolite and internal standard (stable-labelled metabolite) are then calculated. The measurement window for each experiment is then defined: • PAR (0% activity)= average PAR for all incubations containing concentrated inhibitor; • Par (100% activity)= average PAR for all incubations containing no inhibitor (DMSO controls); • % Activity (test inhibitor) • =[PAR(test inhibitor)-PAR(0% activity)]/[PAR(100% activity)-PAR(0% activity)]; • % Inhibition (test inhibitor)=100-% Activity (test inhibitor).

hTLR7 = target: T2, hTLR7 (Homo sapiens, UniProt Q9NYK1); assay: HEK293-Blue-hTLR-7 cells assay (SEAP reporter, R848 stimulation); assay type: cell-based; design: host or cells: HEK293 (HEK-Blue); conditions: HEK293-Blue-hTLR7 cells, R848, 20 hrs; read-out: HEK/hTLR7 IC50
T2 sequence (Q9NYK1 27-1049): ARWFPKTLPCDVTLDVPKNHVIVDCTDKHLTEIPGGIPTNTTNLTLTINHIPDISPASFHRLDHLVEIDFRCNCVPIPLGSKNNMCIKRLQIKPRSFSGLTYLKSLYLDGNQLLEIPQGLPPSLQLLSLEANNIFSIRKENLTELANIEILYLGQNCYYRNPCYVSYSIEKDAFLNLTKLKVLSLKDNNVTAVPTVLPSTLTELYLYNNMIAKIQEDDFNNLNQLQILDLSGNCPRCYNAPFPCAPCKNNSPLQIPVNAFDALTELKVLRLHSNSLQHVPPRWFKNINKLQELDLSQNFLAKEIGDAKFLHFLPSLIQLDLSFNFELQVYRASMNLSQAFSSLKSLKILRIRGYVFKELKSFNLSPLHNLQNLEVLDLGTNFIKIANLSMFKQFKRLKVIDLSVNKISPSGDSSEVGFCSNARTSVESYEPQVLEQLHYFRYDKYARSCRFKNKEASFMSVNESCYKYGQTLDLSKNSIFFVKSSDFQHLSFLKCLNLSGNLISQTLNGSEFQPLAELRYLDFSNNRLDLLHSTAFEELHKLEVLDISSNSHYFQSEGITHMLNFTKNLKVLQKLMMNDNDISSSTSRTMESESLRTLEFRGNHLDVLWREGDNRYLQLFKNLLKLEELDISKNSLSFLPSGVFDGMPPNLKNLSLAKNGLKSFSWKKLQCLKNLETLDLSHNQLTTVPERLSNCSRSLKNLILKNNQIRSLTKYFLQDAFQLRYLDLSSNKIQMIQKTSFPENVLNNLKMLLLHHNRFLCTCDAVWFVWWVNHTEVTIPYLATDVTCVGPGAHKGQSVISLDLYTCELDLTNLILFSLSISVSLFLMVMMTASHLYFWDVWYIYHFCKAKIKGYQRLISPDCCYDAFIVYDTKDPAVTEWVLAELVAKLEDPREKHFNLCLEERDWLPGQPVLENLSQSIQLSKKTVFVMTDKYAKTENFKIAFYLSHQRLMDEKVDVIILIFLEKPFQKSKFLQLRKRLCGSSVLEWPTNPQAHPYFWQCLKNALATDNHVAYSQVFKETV
Excerpt: A stable HEK293-Blue-hTLR-7 cell line was purchased from InvivoGen (Cat.#: hkb-htlr7, San Diego, California, USA). These cells were originally designed for studying the stimulation of human TLR7 by monitoring the activation of NF-κB. A SEAP (secreted embryonic alkaline phosphatase) reporter gene was placed under the control of the IFN-β minimal promoter fused to five NF-κB and AP-1-binding sites. The SEAP was induced by activating NF-xB and AP-1 via stimulating HEK-Blue hTT,R7 cells with TLR7 ligands. Therefore, the reporter expression was declined by TLR7 antagonist under the stimulation of a ligand, such as R848 (Resiquimod), for incubation of 20 hrs. The cell culture supernatant SEAP reporter activity was determined using QUANTI-Blue™ kit (Cat.#: rep-qb1, Invivogen, San Diego, Ca, USA) at a wavelength of 640 nm, a detection medium that turns purple or blue in the presence of alkaline phosphatase.
HEK293-Blue-hTLR7 cells were incubated at a density of 250,000-450,000 cells/mL in a volume of 170 µL in a 96-well plate in Dulbecco's Modified Eagle's medium (DMEM) containing 4.5 g/L glucose, 50 U/mL penicillin, […], […], 2 mM L-glutamine, 10% (v/v) heat-inactivated fetal bovine serum with addition of 20 µL test compound in a serial dilution in the presence of final DMSO at 1% and 10 µL of 20uM R848 in above DMEM, perform incubation under 37 °C in a CO2 incubator for 20 hrs. Then 20 µL of the supernatant from each well was incubated with 180 µL Quanti-blue substrate solution at 37 °C for 2 hrs and the absorbance was read at 620-655 nm using a spectrophotometer. The signaling pathway that TLR7 activation leads to downstream NF-xB activation has been widely accepted, and therefore similar reporter assay was modified for evaluating TLR7 antagonist.

inhibition at 10 min, 10 µM (CYP2D6) [%]	IC50 (hTLR7) [nM]	SMILES
22	5	C[C@@H]1CN(c2ccc(C#N)c3ncccc23)C[C@H](CN2CC3(C2)CN(c2ccc4c(n2)CCNC4)CCO3)O1 [Example 49, 5-[(2R,6S)-2-methyl-6-[[8-(5,6,7,8-tetrahydro-1,6-naphthyridin-2-yl)-5-oxa-2,8-diazaspiro[3.5]nonan-2-yl]methyl]morpholin-4-yl]quinoline-8-carbonitrile]
-2.5	12	C[C@@H]1CN(c2ccc(C#N)c3ncccc23)C[C@H](CN2CCN(c3cnc4c(c3)CNCC4)C(C)(C)C2)O1 [Example 56, 5-[(2S,6R)-2-[[3,3-dimethyl-4-(5,6,7,8-tetrahydro-1,6-naphthyridin-3-yl)piperazin-1-yl]methyl]-6-methyl-morpholin-4-yl]quinoline-8-carbonitrile]
-8	19	C[C@@H]1CN(c2ccc(C#N)c3nccnc23)C[C@H](CN2CCN(c3cnc4c(c3)CNC4)CC2)O1 [Example 25, 8-[(2S,6R)-2-[[4-(6,7-dihydro-5H-pyrrolo[3,4-b]pyridin-3-yl)piperazin-1-yl]methyl]-6-methyl-morpholin-4-yl] quinoxaline-5-carbonitrile]
-5.5	8	C[C@@H]1CN(c2ccc(C#N)c3ncccc23)C[C@H](CN2CCN(c3cc4c(cn3)CCNC4)CC2)O1 [Example 20, 5-[(2R,6S)-2-methyl-6-[[4-(5,6,7,8-tetrahydro-2,6-naphthyridin-3-yl)piperazin-1-yl]methyl]morpholin-4-yl]quinoline-8-carbonitrile]
-8	20	C[C@@H]1CN(c2ccc(C#N)c3ncccc23)C[C@H](CN2CCC(Nc3ncc4c(n3)CCNC4)C2)O1 (stereo partly drawn) [Example 57, 5-[(2R,6S)-2-methyl-6-[[3-(5,6,7,8-tetrahydropyrido [4,3-d]pyrimidin-2-ylamino)pyrrolidin-1-yl]methyl]morpholin-4-yl] quinoline-8-carbonitrile]
-8	6	C[C@@H]1Cc2cc(N3CCN(C[C@H]4CN(c5ccc(C#N)c6nccnc56)C[C@@H](C)O4)CC3)ncc2CN1 (single isomer, unassigned) [Example 83]
6	39	C[C@@H]1CN(c2ccc(C#N)c3ncccc23)C[C@H](CN2CCN(c3ccc4c(c3)C(O)CNC4)CC2)O1 (stereo partly drawn) [Example 22, 5-[(2S,6R)-2-[[4-(4-hydroxy-1,2,3,4-tetrahydroisoquinolin-6-yl)piperazin-1-yl]methyl]-6-methyl-morpholin-4-yl]quinoline-8-carbonitrile]
16.5	11	C[C@@H]1CN(c2ccc(C#N)c3ncccc23)C[C@H](CN2CCN(c3ncc4c(n3)CCNC4)CC2)O1 [Example 29, 5-[(2R,6S)-2-methyl-6-[[4-(5,6,7,8-tetrahydropyrido[4,3-d]pyrimidin-2-yl)piperazin-1-yl]methyl]morpholin-4-yl]quinoline-8-carbonitrile]
6	13	C[C@@H]1CN(c2ccc(C#N)c3ncccc23)C[C@H](CN2CCN(c3cnc4c(c3)CN[C@@H]4C)CC2)O1 (single isomer, unassigned) [Example 68]
7.5	9	C[C@@H]1CN(c2ccc(C#N)c3ncccc23)C[C@H](CN2CCN(c3cc4c(cn3)CNCC4)CC2)O1 [Example 19, 5-[(2R,6S)-2-methyl-6-[[4-(5,6,7,8-tetrahydro-2,7-naphthyridin-3-yl)piperazin-1-yl]methyl]morpholin-4-yl]quinoline-8-carbonitrile]
6	7	C[C@@H]1CN(c2ccc(C#N)c3ncccc23)C[C@H](CN2CCN(c3cc4c(cn3)CCN[C@@H]4C)CC2)O1 (single isomer, unassigned) [Example 74]
6	17	C[C@@H]1CN(c2ccc(C#N)c3ncccc23)C[C@H](CN2CCN(c3cc4c(cn3)[C@@H](C)NCC4)CC2)O1 (single isomer, unassigned) [Example 73]
7	8	C[C@@H]1CN(c2ccc(C#N)c3nccnc23)C[C@H](CN2CCN(c3cc4c(cn3)CCNC4)CC2)O1 [Example 80, 8-[(2R,6S)-2-methyl-6-[[4-(5,6,7,8-tetrahydro-2,6-naphthyridin-3-yl)piperazin-1-yl]methyl]morpholin-4-yl]quinoxaline-5-carbonitrile]
0.5	31	C[C@@H]1CN(c2ccc(C#N)c3ncccc23)C[C@H](CN2CCN(c3ccc4c(c3)CCNC4)CC2)O1 [Example 5, 5-[(2R,6S)-2-methyl-6-[[4-(1,2,3,4-tetrahydroisoquinolin-6-yl)piperazin-1-yl]methyl]morpholin-4-yl]quinoline-8-carbonitrile]
8.5	12	C[C@@H]1CN(c2ccc(C#N)c3ncccc23)C[C@H](CN2CCN(c3ccc4c(n3)CNCC4)CC2)O1 [Example 69, 5-[(2R,6S)-2-methyl-6-[[4-(5,6,7,8-tetrahydro-1,7-naphthyridin-2-yl)piperazin-1-yl]methyl]morpholin-4-yl]quinoline-8-carbonitrile]
24	3	C[C@@H]1CN(c2ccc(C#N)c3ncccc23)C[C@H](CN2CC3[C@H](C2)OCCN3c2ccc3c(n2)CCNC3)O1 (stereo in doubt) [Example 53, cis-5-[(2R,6S)-2-methyl-6-[[4-(5,6,7,8-tetrahydro-1,6-naphthyridin-2-yl)-2,3,4a,5,7,7a-hexahydropyrrolo[3,4-b][1,4]oxazin-6-yl]methyl]morpholin-4-yl]quinoline-8-carbonitrile]
